# Biological target: PilT (Neisseria gonorrhoeae, UniProt Q53432)
# Details: MgCl2 5 mM, Tris 150 mM pH 8.5, NaCl 150 mM, 37 °C; variable ATP, 10 min
# PilT, sequence (Q53432 entry or part of it): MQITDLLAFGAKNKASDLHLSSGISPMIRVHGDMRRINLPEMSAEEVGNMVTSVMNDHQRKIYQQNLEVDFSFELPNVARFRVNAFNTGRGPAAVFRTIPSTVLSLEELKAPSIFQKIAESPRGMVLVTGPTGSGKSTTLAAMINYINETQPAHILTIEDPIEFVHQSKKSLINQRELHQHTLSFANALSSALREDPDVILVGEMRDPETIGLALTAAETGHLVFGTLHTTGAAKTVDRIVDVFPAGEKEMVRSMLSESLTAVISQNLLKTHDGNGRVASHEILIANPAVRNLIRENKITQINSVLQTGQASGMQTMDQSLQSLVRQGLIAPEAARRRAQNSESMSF
smiles,measurement,value
Nc1ncnc2c1ncn2[C@@H]1O[C@H](COP(=O)(O)OP(=O)(O)OP(=O)(O)O)[C@@H](O)[C@H]1O [ATP],Km,0.38 nmol

# Reference: PMC5142622, “Attenuation of the Type IV Pilus Retraction Motor Influences Neisseria gonorrhoeae Social and Infection Behavior” (mBio, 2016)
